Laboratory results published in patent US6642392B1 (priority 1997, dated 2003).
Read-outs that look alike come from different tables or passages of the source.

Legend:
Format in all cases: in vivo
[1] = system: Eiysiphe graminis f. sp. tritici; assay: Test A: wheat powdery mildew, preventive spray on wheat seedlings; details: for Test A disease control rating (100 = 100% disease control, 0 = no disease control): wheat seedlings sprayed to run-off, inoculated the following day, rating relative to controls, unmarked compounds (standard test rate); for Test A disease control rating: wheat powdery mildew
Outline: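 Preventive test: seedlings inoculated with powdery mildew spores one day after run-off spraying of a suspension. Ratings after 7 days in a 20° C growth chamber express percent disease control versus controls.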

[2] = system: Phytophthora infestans; details: for Test D disease control rating (100 = 100% disease control, 0 = no disease control): tomato seedlings sprayed to run-off, inoculated the following day, rating relative to controls, unmarked compounds (standard test rate); for Test D disease control rating: tomato late blight
[3] = system: Botrytis cinerea; assay: Test E: gray mold, preventive spray on cucumber seedlings; details: for Test E disease control rating (100 = 100% disease control, 0 = no disease control): cucumber seedlings sprayed to run-off, inoculated the following day, rating relative to controls, unmarked compounds (standard test rate); for Test E disease control rating: gray mold on cucumber
Outline: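 Preventive spray on cucumber seedlings used a suspension (3% acetone, 250 ppm Trem 014), applied to run-off one day before inoculation with Botrytis cinerea spores. Plants were held 48 h at 20° C in saturated air, then 5 days at 20° C. Percent disease control was scored relative to untreated plants.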

[4] = system: Pyricularia oryzae; details: for Test C disease control rating (100 = 100% disease control, 0 = no disease control): rice seedlings sprayed to run-off, inoculated the following day, rating relative to controls, unmarked compounds (standard test rate); for Test C disease control rating: rice blast
[5] = system: Puccinia recondita; assay: Test B: wheat leaf rust, preventive spray on wheat seedlings; details: for Test B disease control rating (100 = 100% disease control, 0 = no disease control): wheat seedlings sprayed to run-off, inoculated the following day, rating relative to controls, unmarked compounds (standard test rate); for Test B disease control rating: wheat leaf rust
Outline: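 Preventive test: P. recondita spores were applied one day after a run-off spray of compound suspension on wheat seedlings. Plants had 24 h at 20 °C in saturated air plus 6 days in a 20 °C growth chamber. Scoring is % disease control (100 = full) relative to controls.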

[6] = 100 = 100% disease control, 0 = no control relative to controls, unmarked entries (standard test concentration)
[7] = 100 = 100% disease control, 0 = no control, unmarked entries (standard test concentration)

For C#CC(C)(C)C(C#N)C(=O)NC(C)COc1cc(F)ccc1OC(F)F (mixture of isomers) [compound 295], the “Test A disease control rating (100 = 100% disease control, 0 = no disease control)” value [1] was 0%, the “Test D disease control rating (100 = 100% disease control, 0 = no disease control)” value [2] was 0% and the “Test E disease control rating (100 = 100% disease control, 0 = no disease control)” value [3] was 0%. The “Test C disease control rating (100 = 100% disease control, 0 = no disease control)” value [4] was 100% and the “Test B disease control rating (100 = 100% disease control, 0 = no disease control)” value [5] was 0%.

With C=CCc1cccc(C)c1OCC(C)NC(=O)C1(CC)C(C)C1(Cl)Cl (stereo not shown) [compound 119] the “Test A disease control rating” value [1, 6] was 31%, the “Test D disease control rating” value [2, 7] was 0% and the “Test E disease control rating” value [3, 7] was 0%. For the same molecule, the “Test C disease control rating” value [4, 7] was 32% and the “Test B disease control rating” value [5, 7] was 0%.

CC(COc1ccccc1I)NC(=O)C(C#N)C(C)(C)C (mixture of isomers) [11b] was tested, and the “Test A disease control rating” value [1, 6] was 77%, the “Test D disease control rating” value [2, 7] was 23% and the “Test E disease control rating” value [3, 7] was 0%. The “Test C disease control rating” value [4, 7] was 99% and the “Test B disease control rating” value [5, 7] was 85%.

For C=CCc1ccccc1OCC(C)NC(=O)C1(CC)C(C)C1(Cl)Cl (mixture of isomers) [101a], the “Test A disease control rating” value [1, 6] was 0%, the “Test D disease control rating” value [2, 7] was 46% and the “Test E disease control rating” value [3, 7] was 22%. The “Test C disease control rating” value [4, 7] was 0% and the “Test B disease control rating” value [5, 7] was 0%.

In the case of CC(COc1ccc(F)cc1)NC(=O)C(C#N)C(C)(C)C (single isomer, unassigned) [4b], the “Test A disease control rating” value [1, 6] is reported as 86%, the “Test D disease control rating” value [2, 7] is reported as 89% and the “Test E disease control rating” value [3, 7] is reported as 82%. The “Test C disease control rating” value [4, 7] was 99% and the “Test B disease control rating” value [5, 7] was 0%.

For CCC1(C(=O)NC(C)COc2cccc(F)c2)C(C)C1(Cl)Cl (mixture of isomers) [79a], the “Test A disease control rating” value ([1]; tested at 40 ppm) was 0%, the “Test D disease control rating” value ([2]; tested at 40 ppm) was 0% and the “Test E disease control rating” value ([3]; tested at 40 ppm) was 0%. For the same molecule, the “Test C disease control rating” value ([4]; tested at 40 ppm) was 53% and the “Test B disease control rating” value ([5]; tested at 40 ppm) was 0%.

CCC1(C(=O)NC(C)COc2c(F)cccc2F)C(C)C1(Cl)Cl (stereo not shown) [105b] was tested, and the “Test A disease control rating” value ([1]; tested at 40 ppm) was 21%, the “Test D disease control rating” value ([2]; tested at 40 ppm) was 0% and the “Test E disease control rating” value ([3]; tested at 40 ppm) was 0%. For the same molecule, the “Test C disease control rating” value ([4]; tested at 40 ppm) was 74% and the “Test B disease control rating” value ([5]; tested at 40 ppm) was 0%.

With CCC1(C(=O)NC(C)COc2ccc(F)cc2F)C(C)C1(Cl)Cl (stereo not shown) [compound 106] the “Test A disease control rating” value ([1]; tested at 40 ppm) was 84%, the “Test D disease control rating” value ([2]; tested at 40 ppm) was 19% and the “Test E disease control rating” value ([3]; tested at 40 ppm) was 0%. For the same molecule, the “Test C disease control rating” value ([4]; tested at 40 ppm) was 97% and the “Test B disease control rating” value ([5]; tested at 40 ppm) was 0%.

For CCC1(C(=O)NC(C)CCn2c(C#N)cc(Br)c2C)C(C)C1(Cl)Cl (mixture of isomers) [compound 143], the “Test A disease control rating” value [1, 6] was 0%, the “Test D disease control rating” value [2, 7] was 0% and the “Test E disease control rating” value [3, 7] was 0%. For the same molecule, the “Test C disease control rating” value [4, 7] was 53% and the “Test B disease control rating” value [5, 7] was 0%.

For CCC1(C(=O)NC(C)COn2cc(Br)cc2C#N)C(C)C1(Cl)Cl (mixture of isomers) [compound 137], the “Test A disease control rating” value [1, 6] was 0%, the “Test D disease control rating” value [2, 7] was 0% and the “Test E disease control rating” value [3, 7] was 0%. The “Test C disease control rating” value [4, 7] was 53% and the “Test B disease control rating” value [5, 7] was 0%.

In the case of CCC1(C(=O)NC(C)C=Cc2cc(F)ccc2F)C(C)C1(Cl)Cl (stereo not shown) [267b], the “Test A disease control rating (100 = 100% disease control, 0 = no disease control)” value [1] is reported as 92%, the “Test D disease control rating (100 = 100% disease control, 0 = no disease control)” value [2] is reported as 0% and the “Test E disease control rating (100 = 100% disease control, 0 = no disease control)” value [3] is reported as 55%. For the same molecule, the “Test C disease control rating (100 = 100% disease control, 0 = no disease control)” value [4] was 100% and the “Test B disease control rating (100 = 100% disease control, 0 = no disease control)” value [5] was 0%.

For C=C(F)C(C)(C)C(C#N)C(=O)NC(C)COc1cc(F)ccc1F (mixture of isomers) [compound 217], the “Test A disease control rating (100 = 100% disease control, 0 = no disease control)” value [1] was 0%, the “Test D disease control rating (100 = 100% disease control, 0 = no disease control)” value [2] was 0% and the “Test E disease control rating (100 = 100% disease control, 0 = no disease control)” value [3] was 0%. The “Test C disease control rating (100 = 100% disease control, 0 = no disease control)” value [4] was 99% and the “Test B disease control rating (100 = 100% disease control, 0 = no disease control)” value [5] was 0%.

For CCCc1cccc(C#N)c1OCC(C)NC(=O)C(C#N)C(C)(C)C (mixture of isomers) [compound 205], the “Test A disease control rating” value [1, 6] was 0%, the “Test D disease control rating” value [2, 7] was 0% and the “Test E disease control rating” value [3, 7] was 0%. The “Test C disease control rating” value [4, 7] was 74% and the “Test B disease control rating” value [5, 7] was 68%.

In the case of CCC1(C(=O)NCCCn2c(Cl)cc(Cl)c2Cl)C(C)C1(Cl)Cl (stereo not shown) [compound 148], the “Test A disease control rating” value [1, 6] is reported as 0%, the “Test D disease control rating” value [2, 7] is reported as 0% and the “Test E disease control rating” value [3, 7] is reported as 0%. For the same molecule, the “Test C disease control rating” value [4, 7] was 74% and the “Test B disease control rating” value [5, 7] was 0%.
